Assay results taken from ChEMBL document CHEMBL3792312, “Synthesis and docking studies of pyrazine-thiazolidinone hybrid scaffold targeting dormant tuberculosis” (Bioorg Med Chem Lett, 2016).
≈ marks a conversion by molar mass, not a printed value.

Legend:
[1] = tested on: Mycobacterium tuberculosis; assay: Antitubercular activity against dormant Mycobacterium tuberculosis H37Ra after 12 days by XTT-Menadione assay; type: functional, organism-based; details: 288 h
[2] = Cytotoxicity against human THP1 cells after 5 days by MTT assay; type: cell-based, THP-1; details: for IC50: Homo sapiens, THP-1, 120 h; for MCC at 120 h: human, THP1 cells, read-out: MIC
[3] = Cytotoxicity against human PANC1 cells after 5 days by MTT assay; type: cell-based, PANC-1; details: for IC50: Homo sapiens, PANC-1, 120 h; for MCC at 120 h: human, PANC1 cells, read-out: MIC
[4] = (§1) Cytotoxicity against human A549 cells after 3 days by MTT assay; type: cell-based; details: human, A549 cells; read-out: MIC
A549 = assay: as §1; type: cell-based; details: Homo sapiens, A549, 72 h
[5] = (§2) Cytotoxicity against human MCF7 cells after 4 days by MTT assay; type: cell-based; details: human, MCF7 cells; read-out: MIC
MCF7 = assay: as §2; type: cell-based; details: Homo sapiens, MCF7, 96 h
[6] = tested on: Mycobacterium tuberculosis; assay: Antitubercular activity against dormant Mycobacterium tuberculosis H37Ra at 30 ug after 12 days by XTT-Menadione assay; type: functional
[7] = tested on: Mycobacterium tuberculosis; assay: Antitubercular activity against dormant Mycobacterium tuberculosis H37Ra at 10 ug after 12 days by XTT-Menadione assay; type: functional
[8] = tested on: Mycobacterium tuberculosis; assay: Antitubercular activity against dormant Mycobacterium tuberculosis H37Ra at 3 ug after 12 days by XTT-Menadione assay; type: functional
[9] = tested on: Mycolicibacterium smegmatis; assay: Antitubercular activity against dormant Mycobacterium smegmatis MC2 155 at 30 ug after 12 days by XTT-Menadione assay; type: functional, str. MC2 155
[10] = tested on: Mycolicibacterium smegmatis; assay: Antitubercular activity against dormant Mycobacterium smegmatis MC2 155 at 10 ug after 12 days by XTT-Menadione assay; type: functional, str. MC2 155
[11] = tested on: Mycolicibacterium smegmatis; assay: Antitubercular activity against dormant Mycobacterium smegmatis MC2 155 at 3 ug after 12 days by XTT-Menadione assay; type: functional, str. MC2 155
Escherichia coli [12] = assay: Antibacterial activity against Escherichia coli at 30 ug after 8 hrs; type: functional
Escherichia coli [13] = assay: Antibacterial activity against Escherichia coli at 10 ug after 8 hrs; type: functional
Escherichia coli [14] = assay: Antibacterial activity against Escherichia coli at 3 ug after 8 hrs; type: functional
Pseudomonas fluorescens [15] = assay: Antibacterial activity against Pseudomonas fluorescens at 30 ug after 8 hrs; type: functional
Pseudomonas fluorescens [16] = assay: Antibacterial activity against Pseudomonas fluorescens at 10 ug after 8 hrs; type: functional
Pseudomonas fluorescens [17] = assay: Antibacterial activity against Pseudomonas fluorescens at 3 ug after 8 hrs; type: functional
Staphylococcus aureus [18] = assay: Antibacterial activity against Staphylococcus aureus at 30 ug after 12 hrs; type: functional
Staphylococcus aureus [19] = assay: Antibacterial activity against Staphylococcus aureus at 10 ug after 12 hrs; type: functional
Staphylococcus aureus [20] = assay: Antibacterial activity against Staphylococcus aureus at 3 ug after 12 hrs; type: functional
Bacillus subtilis [21] = assay: Antibacterial activity against Bacillus subtilis at 30 ug after 12 hrs; type: functional
Bacillus subtilis [22] = assay: Antibacterial activity against Bacillus subtilis at 10 ug after 12 hrs; type: functional
Bacillus subtilis [23] = assay: Antibacterial activity against Bacillus subtilis at 3 ug after 12 hrs; type: functional

| SMILES | IC50 [1] | MIC [1] | IC50 [2] | MCC at 120 h [2] | IC50 [3] | MCC at 120 h [3] | MCC at 72 h [4] | IC50 (A549) | MCC at 96 h [5] | IC50 (MCF7) | inhibition (INH) [6] | inhibition (INH) [7] | inhibition (INH) [8] | inhibition (INH) [9] | inhibition (INH) [10] | inhibition (INH) [11] | inhibition (INH) (Escherichia coli [12]) | inhibition (INH) (Escherichia coli [13]) | inhibition (INH) (Escherichia coli [14]) | inhibition (INH) (Pseudomonas fluorescens [15]) | further results |
| --- | --- | --- | --- | --- | --- | --- | --- | --- | --- | --- | --- | --- | --- | --- | --- | --- | --- | --- | --- | --- | --- |
| O=C(NN1C(=O)CS[C@@H]1c1ccc(Cl)cc1)c1cnccn1 | 1.09 mg/L (≈ 3.26 µM) | 28.8 mg/L (≈ 86.1 µM) | > 100 mg/L | > 100 µg/mL | > 100 mg/L | > 100 µg/mL | > 100 µg/mL | > 100 mg/L | > 100 µg/mL | > 100 mg/L | 91.2% | 66.53% | 66.68% | -1.593% | -6.521% | 41.55% | 51.04% | 38.71% | -35.07% | 14.72% | inhibition (INH) (Pseudomonas fluorescens [16]): 3.658%; inhibition (INH) (Pseudomonas fluorescens [17]): 8.12%; inhibition (INH) (Staphylococcus aureus [18]): -47.91%; inhibition (INH) (Staphylococcus aureus [19]): 12.54%; inhibition (INH) (Staphylococcus aureus [20]): 8.74%; inhibition (INH) (Bacillus subtilis [21]): 17.44%; inhibition (INH) (Bacillus subtilis [22]): 9.6%; inhibition (INH) (Bacillus subtilis [23]): -13.1% |
| O=C(NN1C(=O)CS[C@@H]1c1ccc([N+](=O)[O-])cc1)c1cnccn1 | 1.47 mg/L (≈ 4.25 µM) | 29 mg/L (≈ 84 µM) | 97.7 mg/L (≈ 283 µM) | > 100 µg/mL | > 100 mg/L | > 100 µg/mL | > 100 µg/mL | > 100 mg/L | > 100 µg/mL | 65.6 mg/L (≈ 190 µM) | 90.93% | 66.45% | 60.59% | 9.803% | -31.0588% | 36.09% | 9% | 14.12% | -6.69% | -21.38% | inhibition (INH) (Pseudomonas fluorescens [16]): 13.35%; inhibition (INH) (Pseudomonas fluorescens [17]): 6.405%; inhibition (INH) (Staphylococcus aureus [18]): -24.9%; inhibition (INH) (Staphylococcus aureus [19]): -1.75%; inhibition (INH) (Staphylococcus aureus [20]): 21.93%; inhibition (INH) (Bacillus subtilis [21]): 8.09%; inhibition (INH) (Bacillus subtilis [22]): -4.94%; inhibition (INH) (Bacillus subtilis [23]): 16.03% |
